These results are taken from ChEMBL document CHEMBL3734724, “Anticancer efficacy of unique pyridine-based tetraindoles” (Eur J Med Chem, 2015).

Assay [1] has as its system MDA-MB-231. Nature of the assay: Cell cycle arrest in human MDA-MB-231 cells assessed as accumulation at G2/M phase at 0.4 uM after 48 hrs by propidium iodide staining-based flow cytometric analysis (reference value: 16 +/- 3%). The class given is functional.
Assay [2] has as its system MDA-MB-231. Nature of the assay: Upregulation of cyclin B1 protein expression in human MDA-MB-231 cells at 0.4 to 3.2 uM after 48 hrs by Western blot analysis relative to control. Format: functional, cell-based. (In general: In western blotting, separated proteins are transferred to a membrane and probed.)
In assay [3] the test system is MDA-MB-231. Nature of the assay: Cell cycle arrest in human MDA-MB-231 cells assessed as accumulation at S phase at 1.6 uM after 48 hrs by propidium iodide staining-based flow cytometric analysis (reference value: 26 +/- 3%). The class given is functional.
Assay [4] has as its system MDA-MB-231. Nature of the assay: Cell cycle arrest in human MDA-MB-231 cells assessed as accumulation at S phase at 1.6 uM after 24 hrs by propidium iodide staining-based flow cytometric analysis (reference value: 32 +/- 4%). Format: functional.
Assay [5] concerns MDA-MB-231. In words: Cell cycle arrest in human MDA-MB-231 cells assessed as accumulation at G0/G1 phase at 0.4 uM after 24 hrs by propidium iodide staining-based flow cytometric analysis (reference value: 57 +/- 6%). The class given is functional. (In flow cytometry, cells or beads pass a laser one at a time.)
Assay [6] deals with MDA-MB-231. In words: Antimetastatic activity against luciferase-expressing human MDA-MB-231 cells xenografted in nude mouse assessed as suppression of lung metastasis by measuring reduction of lung weight at 25 mg/kg, ip administered every other day measured on day 54 relative to vehicle-treated control. The class given is functional. On the set-up: scale not given: the % may be the effect or the level left.

Assay [7] in a line: Cytotoxicity against human Hs578T cells assessed as growth inhibition at 20 uM after 48 hrs by MTT assay relative to control. Format: functional. As to conditions: Hs-578T, read-out: GI.
Assay [8] relates to MDA-MB-231. In words: Cell cycle arrest in human MDA-MB-231 cells assessed as accumulation at S phase at 0.4 uM after 24 hrs by propidium iodide staining-based flow cytometric analysis (reference value: 32 +/- 4%). The class given is functional.
A short description of assay [9]: Cytotoxicity against human Hs578T cells assessed as growth inhibition after 48 hrs by MTT assay. Format: functional, cell-based. As to conditions: Hs-578T. A general note: Tetrazolium assays rely on reduction of a dye to a coloured formazan, in cell work by metabolically active cells.
Assay [10] concerns MDA-MB-231. Nature of the assay: Cell cycle arrest in human MDA-MB-231 cells assessed as accumulation at G0/G1 phase at 1.6 uM after 24 hrs by propidium iodide staining-based flow cytometric analysis (reference value: 57 +/- 6%). The class given is functional.
The next assay deals with MCF7. Nature of the assay: Cytotoxicity against human MCF7 cells assessed as growth inhibition after 48 hrs by MTT assay. The settings on record: MCF7, 48 h. The class given is functional, cell-based.
For assay [11], the system named is MDA-MB-231. Nature of the assay: Cell cycle arrest in human MDA-MB-231 cells assessed as accumulation at G0/G1 phase at 0.8 uM after 48 hrs by propidium iodide staining-based flow cytometric analysis (reference value: 57.8 +/- 0.7%). The class given is functional.
The subject of assay [12] is MDA-MB-231. Nature of the assay: Cell cycle arrest in human MDA-MB-231 cells assessed as accumulation at G2/M phase at 0.8 uM after 48 hrs by propidium iodide staining-based flow cytometric analysis (reference value: 16 +/- 3%). Format: functional.

Activity calls are given as the source filed them. No cut-off for these calls is given here. Some results are limits rather than exact numbers.

What is called IC50 is the midpoint of a concentration-inhibition curve. With `Oc1ccc2[nH]cc(C(c3ccc(C(c4c[nH]c5ccc(O)cc45)c4c[nH]c5ccc(O)cc45)nc3)c3c[nH]c4ccc(O)cc34)c2c1`, the Activity with MDA-MB-231 [1] turned out to be 18%; in the assay on MDA-MB-231 [3] it was 32%; in the assay on MDA-MB-231 [4], 27%; in the assay on MDA-MB-231 [5], 53%; in the assay with MDA-MB-231 [6] it was 22%; in the assay on MDA-MB-231 [8], 33%. For the same molecule, the Activity in the assay on MDA-MB-231 [10] is listed as 53%; in the assay with MDA-MB-231 [11] it was 49%; with MDA-MB-231 [12], 22%. Besides, the result with MDA-MB-231 [2] was Active. Further, in assay [7], the inhibition of growth at 20 µM came out at 25%. Moreover, the IC50 was greater than 20 µM in [9] and 14 µM with MCF7.
